# Test results reported in US20040029208A1, “Assay method and kit for testing biological material for exposure to stress using biomarkers” (priority 2000, published 2004).
# Experiments:
# Experiment in all cases: Visual effect rating (0-9) after Roundup Bio
# Type in all cases: in vivo
# Bellis perennis = tested on: Bellis perennis
# Procedure: (§1) Four, eight, sixteen and thirty two days after spraying, visual effects on plants were noted before harvest, using the rating chart described in Hamil. et al. (1977) and Boutin et al. (1993); a rating of zero indicates full growth and vigour, and a rating of nine indicates no growth/mortality.
# (§2) The study was performed in greenhouse between August and December 1998 for all species. Degree days (=(Present temperature in ° C.-5° C.)×amount of days) were used as time scale. The plants were 226-378 degree days (30 days) old before exposure. The plants were exposed to 0, 1. 10 and 100% of the recommended field dose of Roundup Bio. Before the harvest, the plants were evaluated for visual effects using the rating chart described in Table 1 (Hamit et al., 1977). A rating of zero indicates full growth and vigour (compared with control plants) and a rating of nine, no growth/mortality. The plants were all harvested 180 degree days (14 days) after exposure. The plants were lyophilizied and k pt dry and in dark before phytochemical analysis.
# (§3) Table 2: Sensitivity of plants exposed to glyphosate (Roundup Bio), based on presence of phytochemical changes in all the TLC-Systems at lowest dose of concentration (LC) of the herbicide in percent of field dose. The corresponding visual effect (VE) Is presented (see table 1).
# Leonorus carica = tested on: Leonorus carica
# Procedure: as §1, §2, §3
# Mentha spicata = tested on: Mentha spicata
# Procedure: as §1, §2, §3
# Nepeta cataria = tested on: Nepeta cataria
# Procedure: as §1, §2, §3
# Papaver rhoeas = tested on: Papaver rhoeas
# Procedure: as §1, §2, §3
# Rudbeckia hirta = tested on: Rudbeckia hirta
# Procedure: as §1, §2, §3
# Sinapis avensis = tested on: Sinapis avensis
# Procedure: as §1, §2, §3
compound,measurement,setting,value
O=C(O)CNCP(=O)(O)O [Glyphosate],VE: corresponding visual effect,Bellis perennis,7
same,VE: corresponding visual effect,Leonorus carica,5
same,VE: corresponding visual effect,Mentha spicata,6
same,VE: corresponding visual effect,Nepeta cataria,7
same,VE: corresponding visual effect,Papaver rhoeas,4
same,VE: corresponding visual effect,Rudbeckia hirta,1
same,VE: corresponding visual effect,Sinapis avensis,7
